This assay has as its system bacterial strain MSI001. Put plainly: In vitro antibacterial assay (colony counting). The format is cell-based, Escherichia coli. The note with it: 1 × 10^3 CFU, peptide 0.25, 0.5, 1 μmol/L, 37 °C, 1-8 h, colony count, n = 3. As for the experimental part:
Fig. 6 Antimicrobial activity of the C7C-LL37 fusion peptides in vitro. a Primary structures and physical properties of the C7C and LL37 fusion peptides, including LL37, VTK-LL37, LL37-VTK, KYY-LL37 and LL37-KYY, ISS-LL37, INS-LL37. Net charge, PI and GRAVY values were acquired as described above. b Inhibitory effect of C7C-LL37 fusion peptides on bacterial growth. A C7C-LL37 fusion peptide or LL37 alone was added to the cultured bacterial strain MSI001 (1 × 10^3 CFU) at final concentrations of 0.25 μmol/L, 0.5 μmol/L and 1 μmol/L. Sterile DPBS was used as control. After incubation with the C7C-LL37 or LL37 peptides at 37 °C for different times (1-8 h), bacterial colonies were counted. n = 3. *P < 0.05, VTK-LL37 group compared to LL37 group; ^#P < 0.05, LL37-VTK group compared to LL37 group. c, d Inhibitory effect of VTK-LL37 on biofilm formation. The VTK-LL37 or LL37 peptide was added to the bacterial culture at a final concentration of 0-4 μmol/L and incubated at 37 °C for 3 days. Bacterial culture medium and the peptides were refreshed every day. The biofilm was stained with 1% crystal violet, and the precipitates were dissolved in 95% ethanol, followed by detection of absorbance at 570 nm (A570) (c). Moreover, the biofilm was observed under a microscope (d). n = 5. *P < 0.05, VTK-LL37 group compared to LL37 group […]

“Also recorded” adds a separate entry of the source.

With “CVTKLGSLCVPGVGLLGDFFRKSKEKIGKEFKRIVQRIKDFLRNLVPRTES [VTK-LL37]”, the “inhibitory effect on bacterial growth of MSI001” value was “inhibited MSI001 bacterial growth but also showed stronger antibiotic activity than LL37 alone in the early stage (1-3 h); also recorded: stronger bacteriostatic activity than other LL37 fusion peptides”.

The record behind these values is article PMC9309159, “Identification of heptapeptides targeting a lethal bacterial strain in septic mice through an integrative approach” (Signal Transduction and Targeted Therapy, 2022).
